We go through 1 compound from patent US20220168299A1, “PHARMACEUTICAL COMPOSITION COMPRISING TBN, OR SALT OR HYDRATE THEREOF, AND PREPARATION METHOD THEREOF” (GUANGZHOU MAGPIE PHARMACEUTICALS CO., LTD., priority 2019, published 2022).

As a reminder, the AUC(0-inf) is total exposure, with the tail of the curve extrapolated. A lower AUC(0-inf) goes with less exposure. Usually half-life stands for the time needed for the level to fall by half in the phase considered. A high value points to slow decline. A word on the AUC(0-t): it is the area under the concentration-time curve up to a stated or last time point. What is called Cmax is the maximum level reached in the sampled fluid or tissue. One may read the Tmax as the time from dosing to the highest level.

Values joined by “and” are separate entries in the source; they are usually repeats but may differ in a detail not shown here. Equal entries are not always repeated. Where two headings read alike, the source gives them in different places.

The nature of series [1]: Pharmacokinetic study of TBN enteric-coated tablets (Example 25 method) and intravenous TBN in beagle dogs. It counts as in vivo. As to the method:
(11) Pharmacokinetic study of TBN enteric-coated tablets prepared following the method described in Example 25
24 beagle dogs (male:female 1:1) were randomly divided into 4 groups (each group having 3 female and 3 male animals). Animals in group A were injected intravenously with a TBN (API) solution at a dosage of 6 mg·kg^−1, and animals in groups B and D were respectively given with TBN enteric-coated tablets at a dosage of 100 and 900 mg·animal^−1 by oral gavage. Blood was taken from the animals in group A before and 0.083, 0.25, 0.5, 1, 2, 4, 6, 8 and 24 h after administration; and blood was taken from the animals in group B and D before and 0.25, 0.5, 1, 2, 4, 6, 8, 12 and 24 h after administration. Animals in group C were given TBN enteric-coated tablets at a dosage of 300 mg·animal^−1 for seven consecutive days. Blood was taken from the animals in group C before and 0.25, 0.5, 1, 2, 4, 6, 8, 12 and 24 h after the first and seventh administration and before and 2 h after the second to sixth administration.
Detection and analysis by LC-MS/MS were performed and the pharmacokinetic parameters were calculated.

Series [2] is described as follows: Bioavailability test: pharmacokinetic study of TBN (API) and enteric-coated tablets in beagle dogs. Format: in vivo. Conditions: 175 mg, oral gavage; for MRT last: read-out: MRT (0-t); for Vd/F: read-out: Vz/F. As to the method:
(10) Bioavailability test: Pharmacokinetic study of TBN (API) and enteric-coated tablets in beagle dogs
6 beagle dogs were randomly divided into 2 groups, each group having 3 animals. Each test animal was given with TBN (API) at a dosage of 175 mg, or 1 enteric-coated tablet with a specification of 175 mg prepared following the method in Example 17 by oral gavage. The blood sample was collected at various times (0.08, 0.25, 0.5, 1, 1.5, 2, 4, 8, 12, and 24 h), and analyzed by LC-MS/MS. A drug concentration-time curve was plotted to calculate the pharmacokinetic parameters.

The mark [3] stands for this setting: both sexes, dog, blood, beagle dogs, intravenous 6 mg · kg^−1, Mean.
The mark [4] stands for this setting: beagle, dog, blood, po, Average of 3 animals.
[5] abbreviates: beagle, dog, blood, po, individual animal.
[6] abbreviates: individual animal, listed as TBN (API).

In series [1] (setting [3]), `Cc1nc(C)c(/C=[N+](\[O-])C(C)(C)C)nc1C` [TBN, (cis)-2-methyl-N-[(3,5,6-trimethylpyrazin-2-yl)methylene)2-propylamine oxide] gave an AUC(0-inf) of 3560 ng·h/mL, a C0 of 12100 ng/mL, a clearance of 29.1 mL/min/kg and a half-life of 17.5 min. Also, the MRT inf in series [1] (both sexes, dog, blood, beagle dogs, intravenous 6 mg · kg^−1, Mean, read-out: MRT0-inf) is 17.9 min. Besides, the Vd in series [1] (both sexes, dog, blood, beagle dogs, intravenous 6 mg · kg^−1, Mean, read-out: VDSS) worked out at 0.503 L/kg. In series [1] (intravenous administration), the “difference in exposure levels (C0, AUC0-t) between male and female beagle dogs” value was “no significant difference”. Besides, in series [2] (setting [4]), the AUC(0-inf) was determined as 9580 ng·h/mL, the MRT last was 49.8 min and the Vd/F came out at 1.22 L/kg. In addition, the AUC(0-t) in series [2] (beagle, dog, blood, po, Average of 3 animals, read-out: AUC(0-t)) worked out at 9580 ng·h/mL. For the same compound, the Cmax in series [2] (beagle, dog, blood, po, Average of 3 animals, read-out: Cmax) was 10100 ng/mL. Further, in series [2] (setting [5]), the MRT last came to 37.2 min and the Vd/F was 1.39 L/kg. Moreover, the Tmax in series [2] (dog, blood, individual animal) came to 15 min. In series [2] (Average of 3 animals), the “CLz/F” value came to 30.2 mL/min/kg and the “T½z” value is 31.2 min. Moreover, in series [2] (setting [6]), the “AUC (0-∞)” value is 5294.6 ng·h/mL and 6935.3 ng·h/mL and 16503.3 ng·h/mL; the “AUC(0-t)” value was 5290.7 ng·h/mL and 6935.2 ng·h/mL and 16503.2 ng·h/mL; the “CLz/F” value was 42.8 mL/min/kg and 33.7 mL/min/kg and 14 mL/min/kg; the “Cmax” value was 7280.25 ng/mL and 7291.11 ng/mL and 15646.14 ng/mL. In series [2] (setting [6]), the “MRT (0-t)” value is 53.4 min and 58.8 min; the “T½z” value was 22.8 min and 29.4 min and 42.6 min.
